Source: paper PMC10770013, “Antiproliferative polyketides from fungus Xylaria cf. Longipes SWUF08-81 in different culture media” (Natural Products and Bioprospecting, 2024)
Values after ≈ are worked out from the molar mass of the structure shown. “Also recorded” adds a separate entry of the source.

Key:
HeLa = assay: MTT assay, antiproliferative activity against HeLa; format: cell-based, human; conditions: for IC50: Homo sapiens, HeLa; for toxicity in words, HeLa: MTT assay
Experimental: (§1) The antiproliferative activity was evaluated by MTT (3-(4,5-dimethylthiazol-2-yl)-2,5-diphenyl tetrazolium bromide) assay. Four cancer cell lines; human cervical carcinoma (HeLa), human colon carcinoma (HT29 and HCT116) and human breast carcinoma (MCF-7), along with African green monkey kidney cells (Vero cells) were seeded in 96-well plates (8000 cells/well) and cultured for 24 h, followed by being treated with the selected compounds at 100 µg/mL for 72 h. Following this, 10 μL of MTT reagent (5 mg/mL in phosphate buffer solution (PBS)) was added to each well and further incubated at 37 °C for 2 h. Then, 100 μL of DMSO (dimethyl sulfoxide) was used to dissolve the formazan dye. Finally, the absorbance of the solution was measured using a microplate reader (Bio-Rad Laboratories, Hercules, CA) at wavelengths of 550 and 655 nm. The absorbance at 655 nm was used as a reference wavelength. […] Cisplatin was used as the positive control drug.

HT29 = assay: MTT assay, antiproliferative activity against HT29; format: cell-based, human; conditions: for IC50: Homo sapiens, HT-29; for toxicity in words, HT29: MTT assay
Experimental: as §1

HCT116 = assay: MTT assay, antiproliferative activity against HCT116; format: cell-based, human; conditions: for IC50: Homo sapiens, HCT-116, MTT, 72 h, triplicate, mean ± SD; for toxicity in words, HCT116: MTT assay
Experimental: as §1

Vero cells = assay: MTT assay, antiproliferative activity against Vero cells; format: cell-based, African green monkey; conditions: Chlorocebus sabaeus, 72 h, triplicate, mean ± SD, normal cells
Experimental: as §1

MCF-7 = assay: MTT assay, antiproliferative activity against MCF-7; format: cell-based, human; conditions: triplicate, mean ± SD; for IC50: Homo sapiens, MCF7, 72 h
Experimental: as §1

[1] = system: cancer cell lines (HCT116, HT29, MCF-7 and HeLa); assay: MTT assay, all four cancer cell lines together; format: cell-based, human
Experimental: as §1

[2] = system: HCT116, HT29, MCF-7, HeLa and Vero cells; assay: MTT assay, all cancer cells and normal cells together; format: cell-based
Experimental: as §1

[3] = MTT, 72 h, triplicate, mean ± SD

Row | SMILES | IC50 (HeLa; [3]) | toxicity in words, HeLa (HeLa) | IC50 (HT29; [3]) | toxicity in words, HT29 (HT29) | IC50 (HCT116) | toxicity in words, HCT116 (HCT116) | IC50 (Vero cells) | IC50 (MCF-7) | antiproliferative activity in words, all cancer cells [1] | melting point | antiproliferative activity in words, all cancer cells and normal cells ([2]; MTT assay) | IC50 ([2]; range over HCT116, HT29, MCF-7, HeLa and Vero cells, read-out: IC50 range against all cancer cells and normal cells) | Antiproliferative activity, IC50 ± SD, HeLa (HeLa; [3]) | Antiproliferative activity, IC50 ± SD, HT29 (HT29; [3]) | Antiproliferative activity, IC50 ± SD, MCF-7 (MCF-7; 72 h)
1 | C[C@@H]1Cc2c(C(=O)O)ccc(O)c2C(=O)O1 [Compound 5, (−)-5-carboxymellein] | 57.8 ± 1.26 µg/mL (≈ 260 µM) | slightly toxic | 72.6 ± 2 µg/mL (≈ 327 µM) | slightly toxic | 54.9 ± 3.35 µg/mL (≈ 247 µM) | slightly toxic | > 100 µg/mL | > 100 µg/mL | – | – | – | – | – | – | –
2 | COc1cc(O)c2c(c1)C[C@H](C[C@H]1CCC[C@H](C)O1)OC2=O [Compound 20, asperentin-6-O-methylether] | 4.98 ± 0.4 µg/mL (≈ 16.3 µM) | – | 33.3 ± 4.42 µg/mL (≈ 109 µM) | – | 8.69 ± 0.69 µg/mL (≈ 28.4 µM) | – | > 100 µg/mL | 11.7 ± 0.82 µg/mL (≈ 38.2 µM) | significantly toxic; also recorded: moderate anti-proliferation | – | – | – | – | – | –
3 | COC(=O)c1ccc(O)c2c1C[C@@H](C)OC2=O [Compound 4, (-)-5-methoxycarbonylmellein] | > 100 µg/mL | – | > 100 µg/mL | – | > 100 µg/mL | – | > 100 µg/mL | > 100 µg/mL | – | – | – | – | – | – | –
4 | COC(=O)c1cc(OC)c(O)c2c1C[C@@H](C)OC2=O [Compound 2, (3R)-7-methoxy-5-methoxycarbonylmellein] | > 100 µg/mL | – | 96.4 ± 3.37 µg/mL (≈ 362 µM) | – | 92.9 ± 2.7 µg/mL (≈ 349 µM) | – | > 100 µg/mL | > 100 µg/mL | – | 135 to 136 °C | – | – | – | – | –
5 | C[C@@H]1Cc2cccc(O)c2C(=O)O1 [Compound 3, (−)-mellein] | > 100 µg/mL | – | > 100 µg/mL | – | > 100 µg/mL | – | > 100 µg/mL | > 100 µg/mL | – | – | – | – | – | – | –
6 | C[C@H]1CCC[C@H](C[C@H]2Cc3cc(O)cc(O)c3C(=O)O2)O1 [Compound 18, asperentin] | 2.09 ± 0.16 µg/mL (≈ 7.15 µM) | – | 4.51 ± 0.13 µg/mL (≈ 15.4 µM) | – | 2.42 ± 0.2 µg/mL (≈ 8.28 µM) | – | 8.77 ± 0.91 µg/mL (≈ 30 µM) | 10.1 ± 0.52 µg/mL (≈ 34.5 µM) | significantly toxic | – | strong broad spectrum | 2.09 to 10.1 µg/mL (≈ 7.15 to 34.5 µM) | – | – | –
7 | N.N.[Cl][Pt][Cl] [Cisplatin, reference compound] | – | – | – | – | – | – | – | – | – | – | – | – | 1.93 ± 0.04 µg/mL | 1.59 ± 0.07 µg/mL | 3.13 ± 0.26 µg/mL
8 | C[C@H]1CCC[C@H](Cc2cc(O)cc(O)c2)O1 [Compound 17, (2′R,6′S)-5-((-6-methyltetrahydro-2H-pyran-2-yl)methyl)benzene-1,3-diol] | 13.5 ± 1.15 µg/mL (≈ 60.9 µM) | – | 19.5 ± 0.77 µg/mL (≈ 87.7 µM) | – | 17.5 ± 1.29 µg/mL (≈ 78.7 µM) | – | > 100 µg/mL | 50.2 ± 3.85 µg/mL (≈ 226 µM) | moderate anti-proliferation | – | – | – | – | – | –
9 | COc1cc(O)cc2c1C(=O)O[C@@H](C[C@H]1CCC[C@H](C)O1)C2 [Compound 19, asperentin-8-O-methylether] | > 100 µg/mL | – | > 100 µg/mL | – | 66.5 ± 7.68 µg/mL (≈ 217 µM) | – | > 100 µg/mL | > 100 µg/mL | – | – | – | – | – | – | –
10 | COc1cc2oc3cc(O)cc(O)c3c2c(C)c1O [Compound 1, 1,3,8-trihydroxy-7-methoxy-9-methyldibenzofuran] | 16.7 ± 0.55 µg/mL (≈ 64.1 µM) | – | 8.99 ± 1.96 µg/mL (≈ 34.5 µM) | – | 14.4 ± 0.87 µg/mL (≈ 55.2 µM) | – | 25 ± 0.63 µg/mL (≈ 96.1 µM) | 18.4 ± 0.99 µg/mL (≈ 70.7 µM) | moderate anti-proliferation | – | – | – | – | – | –
11 | C[C@@H]1O[C@@H](C[C@H]2Cc3cc(O)cc(O)c3C(=O)O2)CC[C@@H]1O [Compound 21, 5′-hydroxyasperentin] | > 100 µg/mL | – | > 100 µg/mL | – | > 100 µg/mL | – | > 100 µg/mL | > 100 µg/mL | – | – | – | – | – | – | –
12 | COc1cc(O)cc2c1C(=O)O[C@H](C[C@H]1CCC[C@@H](C)O1)C2 [Compound 15, (3S,2′R,6′R)-asperentin-8-O-methylether] | 92.9 ± 2.7 µg/mL (≈ 303 µM) | slightly toxic | 67.6 ± 6.99 µg/mL (≈ 221 µM) | slightly toxic | 45.1 ± 3.65 µg/mL (≈ 147 µM) | slightly toxic | > 100 µg/mL | > 100 µg/mL | – | – | – | – | – | – | –
13 | C[C@H]1C[C@@H](O)C[C@H](C[C@H]2Cc3cc(O)cc(O)c3C(=O)O2)O1 [Compound 22, 4′-hydroxyasperentin] | > 100 µg/mL | – | > 100 µg/mL | – | > 100 µg/mL | – | > 100 µg/mL | > 100 µg/mL | – | – | – | – | – | – | –
